Measured values: PubChem BioAssay (NCI)
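48-hour exposure; five concentrations; linearly interpolated endpoints. At the GI50, growth is halved. TGI denotes the concentration required for complete inhibition of growth.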

What was measured:
Assay in all cases: DTP human tumour cell line panel, 48 h
MCF7 breast = test system: MCF7 breast
SK-MEL-5 melanoma = test system: SK-MEL-5 melanoma
OVCAR-8 ovarian = test system: OVCAR-8 ovarian
UACC-62 melanoma = test system: UACC-62 melanoma
OVCAR-4 ovarian = test system: OVCAR-4 ovarian
DU-145 prostate = test system: DU-145 prostate
786-0 renal = test system: 786-0 renal
NCI-H522 lung = test system: NCI-H522 lung
MDA-MB-435 = test system: MDA-MB-435
MALME-3M melanoma = test system: MALME-3M melanoma
SN12C renal = test system: SN12C renal
MDA-MB-231 breast = test system: MDA-MB-231 breast
PC-3 prostate = test system: PC-3 prostate
HCC-2998 colon = test system: HCC-2998 colon
SNB-19 CNS = test system: SNB-19 CNS
KM12 colon = test system: KM12 colon
HOP-62 NSCLC = test system: HOP-62 NSCLC
T-47D breast = test system: T-47D breast
SR leukemia = test system: SR leukemia
SK-OV-3 ovarian = test system: SK-OV-3 ovarian
HL-60(TB) leukemia = test system: HL-60(TB) leukemia
SK-MEL-2 melanoma = test system: SK-MEL-2 melanoma
MOLT-4 leukemia = test system: MOLT-4 leukemia
CAKI-1 renal = test system: CAKI-1 renal
HS 578T breast = test system: HS 578T breast
TK-10 renal = test system: TK-10 renal
SF-539 CNS = test system: SF-539 CNS
OVCAR-5 ovarian = test system: OVCAR-5 ovarian
NCI-H226 lung = test system: NCI-H226 lung
EKVX NSCLC = test system: EKVX NSCLC
HT29 colon = test system: HT29 colon
SNB-75 CNS = test system: SNB-75 CNS
RPMI-8226 leukemia = test system: RPMI-8226 leukemia
K-562 leukemia = test system: K-562 leukemia
RXF 393 renal = test system: RXF 393 renal
A498 renal = test system: A498 renal
SF-295 CNS = test system: SF-295 CNS
U251 CNS = test system: U251 CNS
IGROV1 ovarian = test system: IGROV1 ovarian
SW-620 colon = test system: SW-620 colon
NCI-H23 lung = test system: NCI-H23 lung
HCT-116 colon = test system: HCT-116 colon
A549 NSCLC = test system: A549 NSCLC
NCI/ADR-RES ovarian = test system: NCI/ADR-RES ovarian
UO-31 renal = test system: UO-31 renal
SF-268 CNS = test system: SF-268 CNS
BT-549 breast = test system: BT-549 breast
CCRF-CEM leukemia = test system: CCRF-CEM leukemia
SK-MEL-28 melanoma = test system: SK-MEL-28 melanoma
HOP-92 NSCLC = test system: HOP-92 NSCLC
NCI-H460 lung = test system: NCI-H460 lung
M14 melanoma = test system: M14 melanoma
UACC-257 melanoma = test system: UACC-257 melanoma
HCT-15 colon = test system: HCT-15 colon
COLO 205 colon = test system: COLO 205 colon
OVCAR-3 ovarian = test system: OVCAR-3 ovarian
ACHN renal = test system: ACHN renal

Cc1cc2nc3c4cc(O)ccc4n(CCN(C)C)c3nc2cc1C
GI50 (MCF7 breast): 450 nM | TGI (MCF7 breast): 3.26 µM | GI50 (SK-MEL-5 melanoma): 1590 nM | TGI (SK-MEL-5 melanoma): 2970 nM | GI50 (OVCAR-8 ovarian): 494 nM | TGI (OVCAR-8 ovarian): 4.73 µM | GI50 (UACC-62 melanoma): 729 nM | TGI (UACC-62 melanoma): 2600 nM | GI50 (OVCAR-4 ovarian): 1340 nM | TGI (OVCAR-4 ovarian): 3.63 µM | GI50 (DU-145 prostate): 1030 nM | TGI (DU-145 prostate): 4.31 µM | GI50 (786-0 renal): 929 nM | TGI (786-0 renal): 2420 nM | GI50 (NCI-H522 lung): 541 nM | TGI (NCI-H522 lung): 3.32 µM | GI50 (MDA-MB-435): 1070 nM | TGI (MDA-MB-435): 2360 nM | GI50 (MALME-3M melanoma): 1140 nM | TGI (MALME-3M melanoma): 2410 nM | GI50 (SN12C renal): 586 nM | TGI (SN12C renal): 12.4 µM | GI50 (MDA-MB-231 breast): 898 nM | TGI (MDA-MB-231 breast): 5.71 µM | GI50 (PC-3 prostate): 578 nM | TGI (PC-3 prostate): 2300 nM | GI50 (HCC-2998 colon): 1710 nM | TGI (HCC-2998 colon): 4.71 µM | GI50 (SNB-19 CNS): 609 nM | TGI (SNB-19 CNS): 12.3 µM | GI50 (KM12 colon): 1380 nM | TGI (KM12 colon): 7.8 µM | GI50 (HOP-62 NSCLC): 676 nM | TGI (HOP-62 NSCLC): 12.4 µM | GI50 (T-47D breast): 1280 nM | TGI (T-47D breast): > 100 µM | GI50 (SR leukemia): 309 nM | GI50 (SK-OV-3 ovarian): 1800 nM | TGI (SK-OV-3 ovarian): > 61 µM | GI50 (HL-60(TB) leukemia): 364 nM | TGI (HL-60(TB) leukemia): 1760 nM | GI50 (SK-MEL-2 melanoma): 1650 nM | TGI (SK-MEL-2 melanoma): 3.69 µM | GI50 (MOLT-4 leukemia): 377 nM | TGI (MOLT-4 leukemia): 11.2 µM | GI50 (CAKI-1 renal): 337 nM | TGI (CAKI-1 renal): 2110 nM | GI50 (HS 578T breast): 1490 nM | TGI (HS 578T breast): 5.41 µM | GI50 (TK-10 renal): 2210 nM | TGI (TK-10 renal): 6.13 µM | GI50 (SF-539 CNS): 519 nM | TGI (SF-539 CNS): 2090 nM | GI50 (OVCAR-5 ovarian): 953 nM | TGI (OVCAR-5 ovarian): 4.46 µM | GI50 (NCI-H226 lung): 1180 nM | TGI (NCI-H226 lung): 5.45 µM | GI50 (EKVX NSCLC): 2250 nM | TGI (EKVX NSCLC): 9.96 µM | GI50 (HT29 colon): 475 nM | TGI (HT29 colon): 2310 nM | GI50 (SNB-75 CNS): 229 nM | TGI (SNB-75 CNS): 2920 nM | GI50 (RPMI-8226 leukemia): 417 nM | TGI (RPMI-8226 leukemia): 2630 nM | GI50 (K-562 leukemia): 368 nM | TGI (K-562 leukemia): > 100 µM | GI50 (RXF 393 renal): 828 nM | TGI (RXF 393 renal): 2470 nM | GI50 (A498 renal): 403 nM | TGI (A498 renal): 2040 nM | GI50 (SF-295 CNS): 573 nM | TGI (SF-295 CNS): 2490 nM | GI50 (U251 CNS): 747 nM | TGI (U251 CNS): 4.46 µM | GI50 (IGROV1 ovarian): 474 nM | TGI (IGROV1 ovarian): 2890 nM | GI50 (SW-620 colon): 404 nM | TGI (SW-620 colon): 1800 nM | GI50 (NCI-H23 lung): 833 nM | TGI (NCI-H23 lung): 3.35 µM | GI50 (HCT-116 colon): 397 nM | TGI (HCT-116 colon): 3.36 µM | GI50 (A549 NSCLC): 780 nM | TGI (A549 NSCLC): 5.07 µM | GI50 (NCI/ADR-RES ovarian): 499 nM | TGI (NCI/ADR-RES ovarian): 4.2 µM | GI50 (UO-31 renal): 292 nM | TGI (UO-31 renal): 2070 nM | GI50 (SF-268 CNS): 1250 nM | TGI (SF-268 CNS): 5.89 µM | GI50 (BT-549 breast): 2030 nM | TGI (BT-549 breast): 6.27 µM | GI50 (CCRF-CEM leukemia): 518 nM | TGI (CCRF-CEM leukemia): 6 µM | GI50 (SK-MEL-28 melanoma): 1560 nM | TGI (SK-MEL-28 melanoma): 3.16 µM | GI50 (HOP-92 NSCLC): 287 nM | TGI (HOP-92 NSCLC): 2620 nM | GI50 (NCI-H460 lung): 468 nM | TGI (NCI-H460 lung): 1990 nM | GI50 (M14 melanoma): 523 nM | TGI (M14 melanoma): 1910 nM | GI50 (UACC-257 melanoma): 2060 nM | TGI (UACC-257 melanoma): 5.2 µM | GI50 (HCT-15 colon): 611 nM | TGI (HCT-15 colon): 4.1 µM | GI50 (COLO 205 colon): 698 nM | TGI (COLO 205 colon): 3.99 µM | GI50 (OVCAR-3 ovarian): 1770 nM | TGI (OVCAR-3 ovarian): 8.19 µM | GI50 (ACHN renal): 408 nM | TGI (ACHN renal): 10.3 µM
